Results published in ChEMBL document CHEMBL5230141, “Focused Libraries for Epigenetic Drug Discovery: The Importance of Isosteres” (J Med Chem, 2021).

Tests used:
[1] = target: Histone-lysine N-methyltransferase EZH2 (Homo sapiens, UniProt Q15910); assay: Inhibition of EZH2 (unknown origin)
[2] = Inhibition of PI3K (unknown origin); set-up: species or system Homo sapiens

Histone-lysine N-methyltransferase EZH2, sequence (Q15910 whole entry): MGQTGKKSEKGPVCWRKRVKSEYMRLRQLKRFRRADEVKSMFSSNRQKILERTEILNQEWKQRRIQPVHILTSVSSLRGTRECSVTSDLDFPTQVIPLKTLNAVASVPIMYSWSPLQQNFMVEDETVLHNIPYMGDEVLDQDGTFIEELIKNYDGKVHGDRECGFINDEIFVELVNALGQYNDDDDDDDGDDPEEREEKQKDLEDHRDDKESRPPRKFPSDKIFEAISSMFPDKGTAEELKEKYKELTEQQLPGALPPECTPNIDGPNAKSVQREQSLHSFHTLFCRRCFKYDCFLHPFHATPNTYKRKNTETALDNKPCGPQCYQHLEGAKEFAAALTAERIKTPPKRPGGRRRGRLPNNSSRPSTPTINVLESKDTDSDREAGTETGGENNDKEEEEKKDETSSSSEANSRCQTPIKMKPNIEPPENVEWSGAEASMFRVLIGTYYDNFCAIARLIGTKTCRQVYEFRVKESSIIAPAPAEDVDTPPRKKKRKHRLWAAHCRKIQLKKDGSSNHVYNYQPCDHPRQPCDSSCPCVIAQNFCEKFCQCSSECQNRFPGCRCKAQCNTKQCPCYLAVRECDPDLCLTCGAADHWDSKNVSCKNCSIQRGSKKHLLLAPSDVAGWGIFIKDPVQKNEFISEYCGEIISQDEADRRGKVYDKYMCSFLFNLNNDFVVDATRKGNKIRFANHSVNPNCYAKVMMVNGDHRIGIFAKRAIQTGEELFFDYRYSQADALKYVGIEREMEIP

| Structure (SMILES) | EC50 [1] [nM] | Kd [2] [nM] |
| --- | --- | --- |
| Cc1cc(C)c(CNC(=O)c2cc(C)n(C3CCCCC3)c2C)c(=O)[nH]1 | 3400 |  |
| CC(C)Oc1ccc(-c2nn([C@@H](C)c3oc4ccc(F)cc4c(=O)c3-c3cccc(F)c3)c3ncnc(N)c23)cc1F [UMBRALISIB] |  | 6.2 |
